According to ChEMBL document CHEMBL1148897, “New natural products from the sponge-derived fungus Aspergillus niger” (J Nat Prod, 2004):
Active and inactive are the calls of the source. The rule behind the calls is not given here.

Assays:
Escherichia coli [1] = test: Antimicrobial activity against Escherichia coli at 50 ug/disk after 24 hrs by agar plate diffusion assay; type: functional, organism-based
Candida albicans [2] = test: Antimicrobial activity against Candida albicans at 50 ug/disk after 24 hrs by agar plate diffusion assay; type: functional, organism-based
Staphylococcus aureus [3] = test: Antimicrobial activity against Staphylococcus aureus at 50 ug/disk after 24 hrs by agar plate diffusion assay; type: functional, organism-based
Artemia salina [4] = test: Toxicity in Artemia salina at 10 ppm; type: organism-based; settings: in vivo
Bacillus subtilis [5] = test: Antimicrobial activity against Bacillus subtilis at 1000 ug/disk after 24 hrs by agar plate diffusion assay; type: functional, organism-based
Escherichia coli [6] = test: Antimicrobial activity against Escherichia coli at 100 ug/disk after 24 hrs by agar plate diffusion assay; type: functional, organism-based
Candida albicans [7] = test: Antimicrobial activity against Candida albicans at 100 ug/disk after 24 hrs by agar plate diffusion assay; type: functional, organism-based
Staphylococcus aureus [8] = test: Antimicrobial activity against Staphylococcus aureus at 100 ug/disk after 24 hrs by agar plate diffusion assay; type: functional, organism-based
Bacillus subtilis [9] = test: Antimicrobial activity against Bacillus subtilis at 50 ug/disk after 24 hrs by agar plate diffusion assay; type: functional, organism-based
Artemia salina [10] = test: Toxicity in Artemia salina at 100 ppm; type: organism-based; settings: in vivo
Cortical neurone [11] = test: Neuroprotective activity in Wistar rat cortical neuron assessed as reduction of quisqualic acid-induced intracellular calcium level at 5 ug/mL relative to control; type: functional; design: scale not given: the % may be the effect or the level left
Cortical neurone [12] = test: Neuroprotective activity in Wistar rat cortical neuron assessed as reduction of quisqualic acid-induced intracellular calcium level at 1 ug/mL relative to control; type: functional; design: scale not given: the % may be the effect or the level left
Cortical neurone [13] = test: Neuroprotective activity in Wistar rat cortical neuron assessed as reduction of L-glutamic acid-induced intracellular calcium level at 1 ug/mL relative to control; type: functional; design: scale not given: the % may be the effect or the level left
Cortical neurone [14] = test: Neuroprotective activity in Wistar rat cortical neuron assessed as reduction of L-glutamic acid-induced intracellular calcium level at 5 ug/mL relative to control; type: functional; design: scale not given: the % may be the effect or the level left
Spodoptera littoralis [15] = test: Insecticidal activity against Spodoptera littoralis larvae assessed as reduction of weight at 100 ppm in artificial diet after 7 days relative to control; type: functional; design: scale not given: the % may be the effect or the level left
Spodoptera littoralis [16] = test: Insecticidal activity against Spodoptera littoralis larvae assessed as survival rate at 100 ppm in artificial diet after 7 days relative to control; type: functional

## COc1cc(C)c2c(OC)c(-c3c(O)c4c(C)cc(O)cc4oc3=O)c(=O)oc2c1
Escherichia coli [1]
  Activity: inactive
Candida albicans [2]
  Activity: inactive
Staphylococcus aureus [3]
  Activity: inactive
Artemia salina [4]
  Activity: Non-toxic
Bacillus subtilis [5]
  Activity: inactive
Escherichia coli [6]
  Activity: inactive
Candida albicans [7]
  Activity: inactive
Staphylococcus aureus [8]
  Activity: inactive
Bacillus subtilis [9]
  Activity: inactive
Artemia salina [10]
  Activity: Non-toxic

## NC(=O)c1c[nH]c(=O)cc1Cc1ccccc1 [ASPERNIGRIN A]
Escherichia coli [1]
  Activity: inactive
Candida albicans [2]
  Activity: inactive
Staphylococcus aureus [3]
  Activity: inactive
Artemia salina [4]
  Activity: Non-toxic
Bacillus subtilis [5]
  Activity: inactive
Escherichia coli [6]
  Activity: inactive
Candida albicans [7]
  Activity: inactive
Staphylococcus aureus [8]
  Activity: inactive
Bacillus subtilis [9]
  Activity: inactive
Artemia salina [10]
  Activity: Non-toxic

## COc1cc([C@H](Cc2ccccc2)n2cc(C(N)=O)c(Cc3ccccc3)cc2=O)oc(=O)c1 [ASPERNIGRIN B]
Escherichia coli [1]
  Activity: inactive
Candida albicans [2]
  Activity: inactive
Staphylococcus aureus [3]
  Activity: inactive
Cortical neurone [11]
  Activity: 23.5%
Artemia salina [4]
  Activity: Non-toxic
Cortical neurone [12]
  Activity: 33.6%
Bacillus subtilis [5]
  Activity: inactive
Escherichia coli [6]
  Activity: inactive
Candida albicans [7]
  Activity: inactive
Cortical neurone [13]
  Activity: 25.5%
Staphylococcus aureus [8]
  Activity: inactive
Cortical neurone [14]
  Activity: 55%
Bacillus subtilis [9]
  Activity: inactive
Artemia salina [10]
  Activity: Non-toxic

## C/C=C/c1oc2c(c(=O)c1O)N[C@H](O)C2=O [PYRANONIGRIN A]
Escherichia coli [1]
  Activity: inactive
Candida albicans [2]
  Activity: inactive
Staphylococcus aureus [3]
  Activity: inactive
Artemia salina [4]
  Activity: Non-toxic
Bacillus subtilis [5]
  Activity: inactive
Escherichia coli [6]
  Activity: inactive
Candida albicans [7]
  Activity: inactive
Spodoptera littoralis [15]
  Activity: 29%
Staphylococcus aureus [8]
  Activity: inactive
Spodoptera littoralis [16]
  Activity: 85%
Bacillus subtilis [9]
  Activity: inactive
Artemia salina [10]
  Activity: Non-toxic

## C/C=C/c1oc2c(OC)c(O)n(O)c2c(=O)c1O [PYRANONIGRIN B]
Escherichia coli [1]
  Activity: inactive
Candida albicans [2]
  Activity: inactive
Staphylococcus aureus [3]
  Activity: inactive
Artemia salina [4]
  Activity: Non-toxic
Bacillus subtilis [5]
  Activity: inactive
Escherichia coli [6]
  Activity: inactive
Candida albicans [7]
  Activity: inactive
Staphylococcus aureus [8]
  Activity: inactive
Bacillus subtilis [9]
  Activity: inactive
Artemia salina [10]
  Activity: Non-toxic

## C/C=C/c1oc2c(O)c(OC)n(O)c2c(=O)c1O [PYRANONIGRIN C]
Escherichia coli [1]
  Activity: inactive
Candida albicans [2]
  Activity: inactive
Staphylococcus aureus [3]
  Activity: inactive
Artemia salina [4]
  Activity: Non-toxic
Bacillus subtilis [5]
  Activity: inactive
Escherichia coli [6]
  Activity: inactive
Candida albicans [7]
  Activity: inactive
Staphylococcus aureus [8]
  Activity: inactive
Bacillus subtilis [9]
  Activity: inactive
Artemia salina [10]
  Activity: Non-toxic
